Patent US4645747A, “Specific binding assay technique” (priority 1979, dated 1987)
Where two headings read alike, the source gives them in different places.

Experiments:
[1] = cited from earlier work
[2] = format: physicochemical; conditions: for % Estriol extracted, Tracer only: ^125I estriol, no unlabelled estriol; for % Estriol extracted, with 250 ng/ml: with 250 ng/ml unlabelled estriol
Text: The choice of the preferred solvent for each system is made by carrying out a simple experiment in each case as illustrated hereinafter.

[3] = tested on: phenobarbitone antiserum R-66X; experiment: Phenobarbitone RIA with solvent extraction (Example 6); format: binding; conditions: mean of duplicates; for % B/Bo MIBK: methyl isobutyl ketone; for % B/Bo TBME: tert-butyl methyl ether
Experimental: The components used for a phenobarbitone RIA were a (^3 H) phenobarbitone tracer (N.E.N), a phenobarbitone antiserum R-66X (Technion) and tris-maleate assay buffer (pH 7.3, 0.078M Tris, 0.035M maleic acid) containing 0.1% PVP (polyvinyl pyrrolidone).
The tracrer, 100 μl (approx. 10 nono Ci/tube) was added to test-tubes followed by the addition of 50 μl phenobarbitone standards and 100 μl of diluted antiserum. All test-tubes were incubated overnight at 4° C. After incubation, 0.5 ml of solvent (tert-butyl methyl ether, TBME in one experiment and, MIBK in a parallel experiment) were added to each assay tube and vortexed for 20-30 seconds. After phase separation on standing, the aqueous phase was transferred to scintillation vials for radioactivity determination. The following Table 4, summarizes mean values (of duplicates) expressed as % B/Bo.

[4] = tested on: anti-THC antiserum, R-41Va; experiment: THC RIA with solvent extraction or charcoal separation (Example 7); format: binding; conditions: for % B/Bo Charcoal: dextran-coated charcoal
Experimental: An assay using the solvent extraction method was developed for tetrahydrocannabinol (THC) metabolites using a (^3 H)-THC tracer (Amersham). All assay components were prepared in tris-maleate buffer (pH 7.3) containing 0.2% PVP and 0.1% Triton X450 (trademark of Rohm and Haas). […]. The solvent, 500 μl, was added to the assay tubes and vortexed for 20-30 seconds. […]. The following Table 5 summarizes the results, expressed as % B/Bo for the three experiments.

RIA kit for estradiol = experiment: Estradiol 17β (^3H) RIA, kit protocol vs solvent extraction (Example 5); format: binding; conditions: for % B/Bo Expt. A (kit): kit protocol; for % B/Bo Expt. B (solvent extn.): solvent extraction
Experimental: A commercially available (^3 H) RIA kit for estradiol supplied by Isopac was tested by the solvent extraction method as follows:
All kit components were prepared according to kit directions. One experiment (A) was carried out exactly according to the kit protocol. A second, parallel experiment (B) was performed according to kit protocol up to, and including, the incubation step. […] After phase separation (about 10 minutes) the upper solvent phase, containing the free estradiol, was transferred to scintillation vials to which 5 ml of scintillation liquid (Instagel II, trademark of Packard) were added and the radioactivity determined.

ClCCl [Dichloromethane, dichloromethane]
% solubility in water ([1]; water): 2%
% Estriol extracted, Tracer only [2]: 45-47%

CCOC(C)=O [Ethyl acetate, ethyl acetate]
% solubility in water ([1]; in water): 3.3%
% Estriol extracted, Tracer only [2]: 90-94%
% Estriol extracted, with 250 ng/ml [2]: 90-92%

CCC1(c2ccccc2)C(=O)NC(=O)NC1=O [Phenobarbitone, phenobarbitone]
% B/Bo MIBK ([3]; standard 5 ng/ml): 73.0%
% B/Bo TBME ([3]; standard 5 ng/ml): 96.5%
% B/Bo MIBK ([3]; standard 10 ng/ml): 63.0%
% B/Bo TBME ([3]; standard 10 ng/ml): 79.0%
% B/Bo MIBK ([3]; standard 25 ng/ml): 45.0%
% B/Bo TBME ([3]; standard 25 ng/ml): 52.0%
% B/Bo MIBK ([3]; standard 50 ng/ml): 30.0%
% B/Bo TBME ([3]; standard 50 ng/ml): 30.0%
% B/Bo MIBK ([3]; standard 100 ng/ml): 19.0%
% B/Bo TBME ([3]; standard 100 ng/ml): 23.0%

CCN(CC)CC [Triethyl amine]
% Estriol extracted, Tracer only [2]: 86-91%
% Estriol extracted, with 250 ng/ml [2]: 86-90%

ClC(Cl)(Cl)Cl [Carbon tetrachloride, carbon tetrachloride]
% solubility in water ([1]; in water): 0.08%
% Estriol extracted, Tracer only [2]: 35-38%
% Estriol extracted, with 250 ng/ml [2]: 38-40%

ClCc1ccccc1 [Benzyl chloride]
% solubility in water ([1]; in water): 0.05%
% Estriol extracted, Tracer only [2]: 78-80%
% Estriol extracted, with 250 ng/ml [2]: 76-78%

CCCCCc1cc(O)c2c(c1)OC(C)(C)[C@@H]1CCC(C)=C[C@@H]21 [THC, tetrahydrocannabinol]
% B/Bo MIBK ([4]; standard 1 ng/ml): 98%
% B/Bo Charcoal ([4]; standard 1 ng/ml): 98%
% B/Bo t-amyl alcohol ([4]; standard 1 ng/ml): 90%
% B/Bo MIBK ([4]; standard 2 ng/ml): 84%
% B/Bo t-amyl alcohol ([4]; standard 2 ng/ml): 86%
% B/Bo MIBK ([4]; standard 4 ng/ml): 68%
% B/Bo Charcoal ([4]; standard 4 ng/ml): 86%
% B/Bo t-amyl alcohol ([4]; standard 4 ng/ml): 77%
% B/Bo MIBK ([4]; standard 10 ng/ml): 30%
% B/Bo Charcoal ([4]; standard 10 ng/ml): 55%
% B/Bo t-amyl alcohol ([4]; standard 10 ng/ml): 36%
% B/Bo MIBK ([4]; standard 20 ng/ml): 18%
% B/Bo Charcoal ([4]; standard 20 ng/ml): 32%
% B/Bo t-amyl alcohol ([4]; standard 20 ng/ml): 15%
% B/Bo MIBK ([4]; standard 40 ng/ml): 8%
% B/Bo Charcoal ([4]; standard 40 ng/ml): 21%
% B/Bo t-amyl alcohol ([4]; standard 40 ng/ml): 6%

C[C@]12CC[C@@H]3c4ccc(O)cc4CC[C@H]3[C@@H]1CC[C@@H]2O [Estradiol, Estradiol 17β]
% B/Bo Expt. A (kit) (RIA kit for estradiol; standard 25.0 pg/ml): 89.0%
% B/Bo Expt. B (solvent extn.) (RIA kit for estradiol; standard 25.0 pg/ml): 89.0%
% B/Bo Expt. A (kit) (RIA kit for estradiol; standard 50.0 pg/ml): 85.0%
% B/Bo Expt. B (solvent extn.) (RIA kit for estradiol; standard 50.0 pg/ml): 76.0%
% B/Bo Expt. A (kit) (RIA kit for estradiol; standard 100.0 pg/ml): 59.0%
% B/Bo Expt. B (solvent extn.) (RIA kit for estradiol; standard 100.0 pg/ml): 40.0%
% B/Bo Expt. A (kit) (RIA kit for estradiol; standard 200.0 pg/ml): 40.0%
% B/Bo Expt. B (solvent extn.) (RIA kit for estradiol; standard 200.0 pg/ml): 23.0%
% B/Bo Expt. A (kit) (RIA kit for estradiol; standard 400.0 pg/ml): 21.0%
% B/Bo Expt. B (solvent extn.) (RIA kit for estradiol; standard 400.0 pg/ml): 14.0%

CC(=O)CC(C)C [Methyl isobutyl ketone, methyl isobutyl ketone]
% solubility in water ([1]; in water): 1.9%
% Estriol extracted, Tracer only [2]: 91-94%
% Estriol extracted, with 250 ng/ml [2]: 90-94%
